Columns and labels:
A2780 = assay: Cell Titer Glo 2.0 relative cell viability, 72 h (Example 10); format: cell-based; conditions: Homo sapiens, A2780 cell line, read-out: Abs IC50
Description: (§1) The present Example provides experimental evidence that cell lines predicted to be sensitive to a Chk1 inhibitor (e.g., prexasertib, are also sensitive to Wee1 inhibitors (e.g., adavosertib (AZD1775, MK1775) and azenosertib (Zn-C3)). Cell lines were treated with increasing doses of either prexasertib, adavosertib, or azenosertib, and relative cell viability against a DMSO control was assessed 72 h after drug treatment using Cell Titer Glo 2.0 (Promega) and a SpectraMax microplate reader. The results are shown in FIGS. 19A-19C. Error bars represent standard deviations from quadruplicate samples.

A375 = assay: as above; format: cell-based; conditions: Homo sapiens, A-375, A375 cell line, read-out: Abs IC50
Description: as §1

BxPC3 = assay: as above; format: cell-based; conditions: Homo sapiens, BXPC-3, BxPC3 cell line, read-out: Abs IC50
Description: as §1

HeLa = assay: as above; format: cell-based; conditions: Homo sapiens, HeLa cell line, read-out: Abs IC50
Description: as §1

OVCAR3 = assay: as above; format: cell-based; conditions: Homo sapiens, OVCAR-3, OVCAR3 cell line, read-out: Abs IC50
Description: as §1

PC3 = assay: as above; format: cell-based; conditions: Homo sapiens, PC-3, PC3 cell line, read-out: Abs IC50
Description: as §1

T47D = assay: as above; format: cell-based; conditions: Homo sapiens, T47D cell line, read-out: Abs IC50
Description: as §1

[1] = test system: OVCAR3-P and OVCAR3-R cells; assay: Global pan-/phospho-proteomic analysis and western blot after gemcitabine (Example 12); format: cell-based, human; conditions: gemcitabine 10 nM for 24 hours vs DMSO control
Description: To determine whether treatment with gemcitabine can alter the abundance of biomarkers associated with a Response-Predictive Signature, a global pan-proteomic and phosphor-proteomic analysis was performed to compare treatment with low dose gemcitabine (10 nM for 24 hours) to DMSO control in both OVCAR3-P and OVCAR3-R cells.

Row | IC50 (A2780) [nM] | IC50 (A375) [nM] | IC50 (BxPC3) [nM] | IC50 (HeLa) [nM] | IC50 (OVCAR3) [nM] | IC50 (PC3) [nM] | IC50 (T47D) [nM] | Compound | Ser296 phosphorylated Chk1 (BM1) abundance [1] | abundance of total cyclin E1 (BM3) [1]
1 | 900 | 239 | 448 | 604 | 233 | > 10000 | > 10000 | C=CCn1c(=O)c2cnc(Nc3ccc(N4CCN(C)CC4)cc3)nc2n1-c1ccc2c(n1)[C@@](O)(CC)CC2 [Azenosertib] | – | –
2 | 653 | 170 | 360 | 328 | 237 | > 10000 | > 10000 | C=CCn1c(=O)c2cnc(Nc3ccc(N4CCN(C)CC4)cc3)nc2n1-c1cccc(C(C)(C)O)n1 [Adavosertib] | – | –
3 | – | – | – | – | – | – | – | Nc1ccn([C@@H]2O[C@H](CO)[C@@H](O)C2(F)F)c(=O)n1 [gemcitabine, 2′,2′-difluoro 2′-deoxycytidine] | significant increase | significant increase

Reference: patent US20260166029A1, “METHODS AND SYSTEMS FOR TREATING DISEASE USING AN ATR/CHK1 SIGNALING PATHWAY INHIBITOR” (Acrivon Therapeutics, Inc., priority 2022, published 2026)
